According to patent US4734280A, “Treatment or prevention of PAF Acether-induced maladies” (priority 1984, dated 1988):
≈ marks a conversion by molar mass, not a printed value.

Assays:
human PRP = assay: Inhibition of PAF Acether-induced PA, human PRP in vitro; format: cell-based; settings: PAF Acether 100 nM, read-out: IC Doses (PAF Acether-induced PA, human PRP)
Protocol: The Inhibition of PAF Acether-induced PA has been studied on rabbit plasma-rich platelets (PRP). Two doses of PAF Acether were used (2.5 nM and 5 nM). The tested compound was added to the medium 3 minutes before PAF Acether and aggregation was followed by monitoring changes in electrical impedance (Whole-Blood aggregometer-chrono-Log); kadsurenone was simultaneously tested as reference compound and the IC50 molar doses of Ginkgolides A, B, C and M and of kadsurenone on PAF Acether-induced rabbit PA (PRP) have been calculated.
The inhibition of PAF Acether-induced PA has been studied on human PRP. The same protocol was used as for rabbit hereinabove.

[1] = tested on: guinea-pig mesenteric artery; assay: Opto-electronic follow-up of PAF Acether-induced thrombus, guinea-pig mesenteric artery; format: in vivo
From the text: In this experimental study, 20 guinea-pigs were used. […] Briefly summarized, this method consists in the dissection over a distance of 2 to 3 mm of a branch of the mesenteric artery following gently extraction of a loop of small intestine. By transillumination, the image of this arterial segment is projected onto a set of 30 light-depending resistances (LDR) arranged in two columns of 15 elements each. An LDR element has the property to change its internal resistance as a function of a variation of light intensity. Each LDR is connected into its own Wheatstone bridge, and the changes in light intensity due to thrombus formation will be recorded as variations in electrical potentials and registered as such via a multiplexing device.
In the present investigation, several discriminating parameters are recorded: (a) the t1 interval or the lag period (this is the time interval between the beginning of the PAF Acether superfusion and the first signs of thrombus formation; (b) the td interval is the duration of the thrombotic phenomenon; (c) the O(t) curve indicates the number of LDR elements covered by the thrombus image; (d) the D(t) curve represents during each 30×1/9×10^-2 sec interval the greatest potential deviation on one of the LDR elements covered by the thrombus image; (e) the T(t) curve represents the summation of the potentials registered on the LDR elements during a time interval of 30×1/9×10^-2 sec the TTV(t) curve results from the integration of the T(t) values in function of time; (f) mD, mT, and mO correspond to the maximal values registered on, respectively, the D(t), T(t), and O(t) curves; (g) TTV is the maximal value of the TTV(t) curve, whereas TVM is the value of this curve up to the point where mT is reached.
In a first series of experiments (10 animals) the effect of local superfusion with PAF Acether (10^-4 M) is investigated.
In a second series of experiments (10 animals) the effects of Ginkgolide B and of kadsurenone have been compared preventively and curatively.

[2] = tested on: guinea-pig lung parenchymal strip; assay: PAF Acether-induced contraction of superfused lung parenchymal strip
rat portal vein = assay: Isolated rat portal vein, PAF Acether-induced increase of basal tonus
Protocol: In vitro experiments were performed on isolated longitudinal strips of rat portal vein maintained in Krebs-Henseleit medium at 37° C. under an oxygen-rich gaseous circulation (95% O2 -5% CO2).
The preparations were allowed to equilibrate for 1 hour under isotonic conditions with 500 mg tension and rinced every 15 minutes. When myogenic activity was established, PAF Acether (10^-7 M) is added. It induced an increase of the basal tonus and frequency of the myogenic activity.

Sprague-Dowley rats = assay: Cutaneous vascular hyperpermeability induced by PAF Acether in the rat; format: in vivo; settings: 1 mg/kg IV
Protocol: Method: Intradermal injection of 25 ng of PAF Acether in the dorsal region of the rat with simultaneous IV injection of Evans blue dye (60 mg/kg/5 ml) induces vascular hyperpermeability and wheals formation. (for details see Basran GS, Page CP, Paul W and Morley J-Cromoglycate inhibits responses to platelet-activating factor (PAF Acether) in man: an alternative mode of action for DSCG in asthma-Eur. J. Pharma. (1983) 86 143-144).
These wheals were measured (surface in mm^2) at the inner side of the skin 30 mn after the injections and were taken off, put in 4 ml of formamide, incubated at 65° C. during 24 h in order to extract the dye and measure their coloration (optical density at 620 nm).
Groups of 6 Sprague-Dowley rats weighing 200 g were used and each rat received intradermal injections in two sites of the back. The experiment was performed in comparison with a reference compound, D 600 (methoxy verapamil), a calcium-blocker agent.
Treatments: Tested compounds were administered by IV route injected once simultaneously with the dye.

Hartley guinea-pig = assay: PAF Acether-induced bronchoconstriction in the anesthetized guinea-pig; format: in vivo; settings: 1 mg/kg IV
Protocol: Method: (For details, see B. B. VARGAFTIG, J. LEFORT, F. WAL, M. CHIGNARD and M. C. MEDEIROS-Non-steroidal anti-inflammatory drugs of combined with anti-histamine and anti-serotonin agents interfere with the bronchial and platelet effects of PAF Acether-Enr. J. Pharm. (1982) 82 121-130). Male Hartley guinea-pig (400-500 g) were anesthetized with urethane 2 g/kg Ip., tracheotomised and ventilated by mean of a respiratory pump: 70-80 strokes mn, stroke volume 5 ml, a pneumothorax was done to abolish spontaneous respiration. The right jugular vein was catherized and used for injections.
The initial resistance was kept constant at 10 cm H2 O pressure according to the method of Konzett and Rossler and the overflowed airway was measured with a bronchospasm transducer UGO BASILE connected to a UGO BASILE recorder "GEMINI". Bronchial sensitivity of the animal was checked with acetylcholine (10-40 ng kg^-1 IV) and after constant response was obtained, there were injected, IV, first the propylene glycol and, five minutes later, 60 ng/kg of PAF Acether, which gave the control bronchoconstriction expressed as % of maximal bronchoconstriction given by clamping off the trachea. 40 minutes later, the tested compounds were administered by IV injection and, 5 minutes later, 60 ng/kg of PAF Acether by the same route. This experimentation was conducted on three batches of each 10 animals: first batch for Ginkgolide A, second one for Ginkgolide B and last one for Ginkgolide C, all at the 1 mg/kg dose. The figures of the following table are the average values for the 10 animals of each batch.

## CC1C(=O)OC2C(O)C34C5CC(C(C)(C)C)C36C(OC(=O)C6O)OC4(C(=O)O5)C12O (stereo not shown) [Ginkgolide B]
Human PRP
  IC50: 56 µM
[1]; PAF Acether superfusion
  thrombus formation when superfused with PAF Acether (preventive): no thrombus appeared
[1]; PAF Acether-induced thrombus
  time for disappearance of pre-formed thrombus (curative): 2.30 min
[2]; Cavia porcellus, read-out: change of PAF Acether (3 ng)-induced contraction
  inhibition at 30 µg/mL: 78.8%
[2]; preventive superfusion 30 μg/ml, average of 10 determinations
  Contraction induced by PAF Acether (3 ng) (Arbitrary Units): 8.05 ± 2.16 Arbitrary Units
Rat portal vein; Rattus norvegicus, PAF Acether 10^-7 M, added 30 minutes before PAF Acether, read-out: IC50 (antagonism of PAF Acether-induced increase of the basal tonus)
  IC50: 6.8 µg/mL (≈ 16 µM)
Rat portal vein; isolated rat portal vein
  effect on the myogenic activity: without effect
Sprague-Dowley rats; PAF Acether 25 ng intradermal, 30 mn, p < 0.001
  PAF Acether induced wheal, Surface: 58.5 mm^2
Sprague-Dowley rats; optical density at 620 nm, p < 0.001
  PAF Acether induced wheal, Coloration OD: 0.628 OD
Sprague-Dowley rats; vs control
  PAF Acether induced wheal, Coloration % decrease: -45%
  PAF Acether induced wheal, Surface % decrease: -43%
Hartley guinea-pig; 5 minutes before PAF Acether 60 ng/kg IV, % of maximal bronchoconstriction, average of 10 animals
  % of bronchoconstriction: 6.2%
Hartley guinea-pig; vs solvent in the same batch
  % of inhibition (bronchoconstriction): 92.3%
